Legend:
[1] = 100 kPa, Liquid; for speed of sound: Frequency=3 MHz, Single path-length method; for mass density: Vibrating tube method; for viscosity: Capillary tube (Ostwald / Ubbelohde) method
[2] = xn = mol fraction of the nth substance listed; details: 100 kPa, Liquid, x2 = 0; for viscosity: Capillary tube (Ostwald / Ubbelohde) method; for speed of sound: Frequency=3 MHz, Single path-length method; for mass density: Vibrating tube method

CCCO [propan-1-ol]
[1]
Details	mass density [kg/m3]	speed of sound [m/s]	viscosity [mPa·s]
278.15 K	815.52	1276	–
283.15 K	811.6	1258.7	–
288.15 K	807.63	1241.1	–
293.15 K	803.65	1223.8	2.14
298.15 K	799.65	1206.5	1.897
303.15 K	795.61	1189.4	1.688
308.15 K	791.54	1172.4	1.506
313.15 K	787.43	1155.5	1.348
318.15 K	783.27	1138.7	1.211
323.15 K	779.05	1121.9	1.09
328.15 K	774.79	1105.2	0.985
333.15 K	770.44	1088.3	0.892
338.15 K	766.03	1071.5	0.81
343.15 K	761.53	1054.5	0.737

CC[S+](CC)CC.O=S(=O)([N-]S(=O)(=O)C(F)(F)F)C(F)(F)F [triethylsulfonium bis((trifluoromethyl)sulfonyl)imide]
[1]
Details	mass density [kg/m3]	speed of sound [m/s]	viscosity [mPa·s]
278.15 K	1479.52	1284.8	–
283.15 K	1474.62	1274.1	–
288.15 K	1469.71	1263.3	–
293.15 K	1464.83	1252.9	39.64
298.15 K	1459.98	1242.5	32.43
303.15 K	1455.14	1232.4	26.92
308.15 K	1450.33	1222.4	22.64
313.15 K	1445.52	1212.7	19.24
318.15 K	1440.74	1203.1	16.53
323.15 K	1435.99	1193.7	14.31
328.15 K	1431.27	1184.7	12.5
333.15 K	1426.57	1175.9	10.99
338.15 K	1421.87	1166.8	9.726
343.15 K	1417.19	1157.6	8.659

CCCC[N+]1(C)CCCC1.O=S(=O)([N-]S(=O)(=O)C(F)(F)F)C(F)(F)F
[1]
Details	mass density [kg/m3]	speed of sound [m/s]	viscosity [mPa·s]
278.15 K	1412.33	1316.3	–
283.15 K	1407.79	1304.4	–
288.15 K	1403.28	1292.5	–
293.15 K	1398.78	1280.8	97.14
298.15 K	1394.32	1269.4	76.54
303.15 K	1389.87	1258.2	61.31
308.15 K	1385.44	1247.1	49.84
313.15 K	1381.05	1236.1	41.08
318.15 K	1376.66	1225.3	34.3
323.15 K	1372.3	1214.6	28.98
328.15 K	1367.94	1204.1	24.76
333.15 K	1363.6	1193.6	20.74
338.15 K	1359.28	1183.2	18.03
343.15 K	1354.98	1173	15.8

CCCO [propan-1-ol] + O=S(=O)([N-]S(=O)(=O)C(F)(F)F)C(F)(F)F.On1cc[n+](O)c1
[2]
Details	mass density [kg/m3]	speed of sound [m/s]	viscosity [mPa·s]
293.15 K	804	1223.8	2.14
298.15 K	800	1206.5	1.897
303.15 K	796	1189.4	1.688
308.15 K	792	1172.4	1.506
313.15 K	787	1155.5	1.348
318.15 K	783	1138.7	1.211
323.15 K	779	1121.9	1.09
328.15 K	775	1105.2	0.985
333.15 K	770	1088.3	0.892
338.15 K	766	1071.5	0.81
343.15 K	762	1054.5	0.737

— the NIST ThermoML archive (doi:10.1021/acs.jced.8b00537)
